# Experiments:
# [1] = test system: SW480 cell line xenograft; experiment: CRC cell line xenograft efficacy, SW480; format: in vivo, mice; settings: 25 mg/kg orally twice daily, 14–28 days, end of study tumor volumes
# Description: (§1) For cell line xenografts, CRC cells were harvested in exponential phase growth and resuspended in a 1:1 mixture of serum-free RPMI 1640 and Matrigel (BD Biosciences). Five to ten million cells per mouse were injected subcutaneously into the flank using a 23-gauge needle. Mice were monitored daily for signs of toxicity and were weighed twice weekly. Tumor size was evaluated twice per week by caliper measurements using the following formula: tumor volume = length × width^2 × 0.52. When tumors reached 200–300 mm^3 mice were randomized into two groups with at least 10 tumors per group. Mice were then treated for 14–28 days (until control tumor volume reach ∼1500 mm^3) with either vehicle control (0.5% methylcellulose), or PF-3758309 (25 mg/kg) twice daily by oral gavage.
# (§2) Human tumor xenograft models were used to evaluate the efficacy of PF-309 in vivo. Eleven different CRC cell line tumor xenografts were treated with 25 mg/kg PF-309 twice daily by oral gavage for 14–28 days (until control tumor volumes reached ∼1500 mm^3). Tumor volumes were measured throughout the study and the % growth inhibition was calculated from the average end of study tumor volumes by:
# (§3) % Growth Inhibition= (average control volume−average treated volume)/average control volume×100%
# SW48 cell line xenograft = experiment: CRC cell line xenograft efficacy, SW48; format: in vivo, mice; settings: 25 mg/kg orally twice daily, 14–28 days, end of study tumor volumes
# Description: as §1, §2, §3
# CRC cell lines = experiment: Proliferation assays with and without P-gp inhibitor CP-100356, subset of CRC cell lines; format: cell-based, human; settings: 0.625 μM CP-100356; five out of the six CRC cell lines
# Description: Cytotoxic/proliferation effects were determined using the sulforhodamine B (SRB) assay (Skehan et al., [1990]) or by resazurin. Briefly, cells in logarithmic growth phase were transferred to 96 well flat bottom plates with lids. […] Media was removed and cells were fixed with cold 10% trichloroacetic acid for 30 min at 4°C. Cells were then washed with water and stained with 0.4% SRB (Fisher Sci., Pittsburgh, PA, USA) for 30 min at room temperature, washed again with 1% acetic acid, followed by stain solubilization with 10 mM tris at room temperature. The plate was then read on a plate reader (Biotek Synergy 2, Winooski, VT, USA) set at an absorbance wavelength of 565 nm. Cell proliferation curves were derived from the raw absorbance (OD) data.
# HCT116 = experiment: Cell proliferation assay, HCT116; format: cell-based; settings: Homo sapiens, HCT-116; HCT116, 72 h, SRB assay
# Description: (§4) Cytotoxic/proliferation effects were determined using the sulforhodamine B (SRB) assay (Skehan et al., [1990]) or by resazurin. Briefly, cells in logarithmic growth phase were transferred to 96 well flat bottom plates with lids. One-hundred microliter cell suspensions containing 1500–5000 viable cells were plated into each well and incubated overnight prior to exposure with increasing concentrations of PF-309 for 3–5 days, dependent upon cell type. Media was removed and cells were fixed with cold 10% trichloroacetic acid for 30 min at 4°C. Cells were then washed with water and stained with 0.4% SRB (Fisher Sci., Pittsburgh, PA, USA) for 30 min at room temperature, washed again with 1% acetic acid, followed by stain solubilization with 10 mM tris at room temperature. The plate was then read on a plate reader (Biotek Synergy 2, Winooski, VT, USA) set at an absorbance wavelength of 565 nm. Cell proliferation curves were derived from the raw absorbance (OD) data.
# (§5) Since PF-309 appeared to be a strong P-gp and BCRP substrates, we sought to evaluate if the transporters influenced sensitivity in vitro. We evaluated the sensitivity of CRC cell lines to PF-309 treatment in a panel of 27 lines. Cells were exposed to PF-309 at a range of concentrations for 72 h and cell content measured by SRB assay (see Pitts et al., [2013]). […]
# LS1034 = experiment: Cell proliferation assay, LS1034; format: cell-based; settings: Homo sapiens, LS-1034; LS1034, PF-309 alone, 72 h; 1 uM was the maximum concentration used
# Description: as §4, §5
structure (smiles),measurement,setting,value
Cc1nc(Nc2n[nH]c3c2CN(C(=O)N[C@H](CN(C)C)c2ccccc2)C3(C)C)c2sccc2n1 [PF-309],% Growth inhibition,[1],42%
same,% Growth inhibition,SW48 cell line xenograft,45%
same,fold change in the IC50 of PF-309 caused by CP-100356,CRC cell lines,4–100 fold
same,IC50,HCT116,4.7 ± 0.9 nM
same,IC50,LS1034,> 1000 nM
